Measured values published in patent US6596288B2, “Use of sterols as active ingredient in a cosmetic composition against adiposity” (Codif International SA, priority 2000, dated 2003).

Columns and labels:
human adipocytes [1] = test: incorporation of [2-14C]-acetate into lipids (LIPOGENESIS) by isolated human adipocytes; assay type: cell-based; settings: for inhibition at 10 µM / inhibition at 100 µM / inhibition at 1000 µM: Homo sapiens, Adipocyte
Protocol: (§1) In these experiments, adipocytes were isolated from abdominal restorative surgeries sampled in women. The experiment took place the day of the sampling. Fragments of adipose tissues were incubated for 30 minutes at 37° C. in the presence of collagenase, then the isolated adipocytes were washed and taken up in medium MEM buffered with bicarbonate, in the presence of antibiotics (penicillin/streptomycin), glutamine (2 mM), and delipidated bovine serum albumin (0.5%).
The tests concerning the effect on lipogenesis were then conducted in the following manner.
Adipocytes (90 μl of ¼ diluted suspension) were incubated for 1 hour, either with a control medium (4 hours), with molecules known to inhibit the neosynthesis of fatty acids (EPA), as for example […], or with previously diluted extracts (added under 100 μl).
As to the sterols and to the lipidic extracts of plants or algae, they were diluted in mineral oil which has been verified to not inhibit incorporation or extraction of adipocyte lipids. Then, 10 μl of [2^14C]-acetate, 50 μCi/ml, were added, and the samples were either cultivated at 37° C. in the presence of 5% CO2 for 4 additional hours, or immediately frozen at −80° C. (control t0).
At the times indicated, the samples were frozen at −80° C. The lipids were then extracted according to the method of Bligh and Dyer (extraction methanol/chloroform/water), then dried under nitrogen. The radioactivity incorporated was then counted by liquid scintillation.

human adipocytes [2] = test: liberation of NEFA (non-esterified fatty acids) (LIPOLYSIS) by isolated human adipocytes; assay type: cell-based; settings: for % Control (NEFA liberation) / Average of the NEFA: 2 hours at 37° C.
Protocol: as §1
As to the tests concerning the effect on lipolysis, they were conducted in the following manner. Adipocytes (540 μl of suspension) were incubated for 2 hours in a water bath at 37° C., with agitation, in the presence of 60 μl of different sterols. The experiments were carried out in triplicate.
Then, the non-esterified fatty acids (AGNE) released by the adipocytes were determined in the sub-adipocyte media. The values obtained were treated by an analysis of variance (ANOVA) by means of the multiple comparison test of Dunnett. The values were considered as significant when the probability p was less than the threshold of significance 0.05.

[3] = 0.01 mM (10^−5 M), absence of insulin, 4 h
[4] = 0.01 mM (10^−5 M), presence of insulin (1 nM), 4 h
[5] = 0.1 mM (10^−4 M), absence of insulin, 4 h
[6] = 0.1 mM (10^−4 M), presence of insulin (1 nM), 4 h
[7] = 1 mM (10^−3 M), absence of insulin, 4 h
[8] = 1 mM (10^−3 M), presence of insulin (1 nM), 4 h

insulin
increase of the incorporation of acetate (human adipocytes [1]; 1 nM of insulin): 16% | increase of the incorporation of acetate (human adipocytes [1]; 100 nM of insulin, another donor): 120%

CC(C)NCC(O)c1ccc(O)c(O)c1 (stereo not drawn) [Isoproterenol, isoproterenol, reference compound]
stimulation of lipolysis (human adipocytes [2]; 1 μM, p<0.05): stimulated the lipolysis | % Control (NEFA liberation) (human adipocytes [2]; 10^−6 M (1 μM)): 342% | Average of the NEFA (human adipocytes [2]; 10^−6 M (1 μM)): 483 µM

CC(C)[C@H](C)CC[C@@H](C)[C@H]1CC[C@H]2[C@@H]3CC=C4C[C@@H](O)CC[C@]4(C)[C@H]3CC[C@]12C [Campesterol, campesterol]
incorporation of acetate by isolated human adipocytes (conclusion) (human adipocytes [1]): inhibit the incorporation of acetate | % control (incorporation of acetate) (human adipocytes [1]; [3]): 92% | Average of cpm (incorporation of acetate) (human adipocytes [1]; [3]): 191817 cpm | cpm - t0 test (incorporation of acetate) (human adipocytes [1]; [3]): 185352 cpm | % control (incorporation of acetate) (human adipocytes [1]; [4]): 101% | % inhibition (incorporation of acetate) (human adipocytes [1]; [4]): no significant effect | Average of cpm (incorporation of acetate) (human adipocytes [1]; [4]): 243051 cpm | cpm - t0 test (incorporation of acetate) (human adipocytes [1]; [4]): 236586 cpm | % control (incorporation of acetate) (human adipocytes [1]; [5]): 90% | Average of cpm (incorporation of acetate) (human adipocytes [1]; [5]): 188278 cpm | cpm - t0 test (incorporation of acetate) (human adipocytes [1]; [5]): 181813 cpm | % control (incorporation of acetate) (human adipocytes [1]; [6]): 85% | Average of cpm (incorporation of acetate) (human adipocytes [1]; [6]): 206655 cpm | cpm - t0 test (incorporation of acetate) (human adipocytes [1]; [6]): 200190 cpm | % control (incorporation of acetate) (human adipocytes [1]; [7]): 74% | Average of cpm (incorporation of acetate) (human adipocytes [1]; [7]): 156448 cpm | cpm - t0 test (incorporation of acetate) (human adipocytes [1]; [7]): 149983 cpm | % control (incorporation of acetate) (human adipocytes [1]; [8]): 48% | Average of cpm (incorporation of acetate) (human adipocytes [1]; [8]): 119960 cpm | cpm - t0 test (incorporation of acetate) (human adipocytes [1]; [8]): 113495 cpm | inhibition at 10 µM (human adipocytes [1]; 4 h, 0.01 mM (10^−5 M), absence of insulin): 8% | inhibition at 10 µM (human adipocytes [1]; 4 h, 0.01 mM (10^−5 M), presence of insulin (1 nM)): 0% | inhibition at 100 µM (human adipocytes [1]; 4 h, 0.1 mM (10^−4 M), absence of insulin): 10% | inhibition at 100 µM (human adipocytes [1]; 4 h, 0.1 mM (10^−4 M), presence of insulin (1 nM)): 15% | inhibition at 1000 µM (human adipocytes [1]; 4 h, 1 mM (10^−3 M), absence of insulin): 26% | inhibition at 1000 µM (human adipocytes [1]; 4 h, 1 mM (10^−3 M), presence of insulin (1 nM)): 52% | % Control (NEFA liberation) (human adipocytes [2]; 10^−2 M): 118% | Average of the NEFA (human adipocytes [2]; 10^−2 M): 167 µM | % Control (NEFA liberation) (human adipocytes [2]; 10^−3 M (1 mM)): 98% | Average of the NEFA (human adipocytes [2]; 10^−3 M (1 mM)): 138 µM | % Control (NEFA liberation) (human adipocytes [2]; 10^−4 M): 109% | Average of the NEFA (human adipocytes [2]; 10^−4 M): 155 µM | % Control (NEFA liberation) (human adipocytes [2]; 10^−5 M): 99% | Average of the NEFA (human adipocytes [2]; 10^−5 M): 140 µM | % Control (NEFA liberation) (human adipocytes [2]; 10^−6 M (1 μM)): 117% | Average of the NEFA (human adipocytes [2]; 10^−6 M (1 μM)): 166 µM | stimulation of lipolysis (human adipocytes [2]; 10^−6 M, 10^−5 M, 10^−4 M, 10^−3 M and 10^−2 M): did not stimulate lipolysis

Cn1c(=O)c2[nH]cnc2n(C)c1=O [Theophylline, theophylline, reference compound]
stimulation of lipolysis (human adipocytes [2]; 1 nM, p<0.05): stimulated the lipolysis | % Control (NEFA liberation) (human adipocytes [2]; 10^−3 M (1 mM)): 390% | Average of the NEFA (human adipocytes [2]; 10^−3 M (1 mM)): 551 µM
